Broadly, the IC50 is the point on the concentration scale where inhibition reaches its midpoint.

This assay has as its target T1, rat GPR14 (U-II receptor) (Rattus norvegicus, UniProt P49684).
T1 construct: expressed in transfected cells
T1 sequence (P49684 1-386): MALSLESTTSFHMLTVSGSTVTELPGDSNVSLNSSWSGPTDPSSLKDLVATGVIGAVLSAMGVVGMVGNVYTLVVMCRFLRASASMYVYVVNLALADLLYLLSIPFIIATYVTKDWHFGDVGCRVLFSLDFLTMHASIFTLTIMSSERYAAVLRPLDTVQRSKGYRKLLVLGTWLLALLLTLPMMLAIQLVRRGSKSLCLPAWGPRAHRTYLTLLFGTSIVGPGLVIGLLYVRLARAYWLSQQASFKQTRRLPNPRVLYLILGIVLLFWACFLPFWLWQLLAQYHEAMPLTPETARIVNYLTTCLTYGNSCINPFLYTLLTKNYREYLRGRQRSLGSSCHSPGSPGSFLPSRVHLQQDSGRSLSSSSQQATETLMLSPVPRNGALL
The assay can be described thus: Calcium flux assay (FLIPR). It is filed as cell-based. Conditions: Inhibition of acetyl-cyclic[Cys-Phe-Trp-Lys-(2-Nal)-Cys]-NH2 (1 nM) induced Ca2+ mobilization (FLIPR) in CHO cells transfected with rat UII receptor; 5 min incubation. The source says: To derive these cells, the complete coding sequence of rat […] was amplified by nested PCR from rat heart marathon-Ready cDNA. […] The PCR products were cloned into pcDNA3 (Invitrogen) digested with EcoR I and Xba I. Clones containing rat U-II receptor were verified by complete sequencing of the U-II receptor insert to ensure a lack of PCR-introduced errors. The constructed vector was transfected into CHO cells by using lipofectamine (GIBCO BRL). CHO cells with high expression of rat U-II receptor were selected and established as stable cell lines by using G418. CHO cells were seeded at 25,000 cells per well into 96-well, black-wall, clear-bottom microtiter plates 24 hrs before assay. Cells in culture media (DMEM/F12 containing 15 mM HEPES, L-glutamine, pyridoxine hydrochloride; 10% fetal bovine serum; 1 mg/mL G418 sulfate; antibiotic-antimycotic; pH 7.4) were loaded with proprietary dye, from the FLIPR Calcium Assay Kit (Molecular Devices), prepared in assay buffer (Hanks Balanced Salts Solution, 20 mM HEPES, 0.1% BSA, 2.5 mM probenecid, pH 7.4), and incubated for 1 hr at 37° C. Calcium mobilization determinations were performed at room temperature (23° C.).
A general note: A change in cytosolic calcium serves as a functional read-out for many receptors and channels.
In the case of `O=C(NCCc1cc(F)ccc1F)c1ccccc1C1CCN(CCN2C(=O)COc3ccccc32)CC1` [Cpd 22, N-[2-(2,5-difluoro-phenyl)-ethyl]-2-{1-[2-(3-oxo-2,3-dihydro-benzo[1,4]oxazin-4-yl)-ethyl]-piperidin-4-yl}-benzamide], the concentration for half-maximal inhibition (IC50) worked out at 13 µM.

On to `O=C(NCCCCc1ccccc1)c1ccccc1C1CCN(CCN2C(=O)COc3ccccc32)CC1` [Cpd 4], for which the IC50 is 3.1 µM.

Turning to `O=C(NCC1CCN(C(=O)c2ccccc2)CC1)c1cc(Cl)ccc1C1CCN(CCN2C(=O)COc3ccccc32)CC1` [Cpd 64, N-(1-benzoyl-piperidin-4-ylmethyl)-5-chloro-2-{1-[2-(3-oxo-2,3-dihydro-benzo[1,4]oxazin-4-yl)-ethyl]-piperidin-4-yl}-benzamide], the concentration for half-maximal inhibition (IC50) came to 0.52 µM.

In the case of `O=C1COc2ccccc2N1CCN1CCC(C(=O)NCCCCc2ccccc2)(c2ccccc2)CC1` [Cpd 108, 1-[2-(3-oxo-2,3-dihydro-benzo[1,4]oxazin-4-yl)-ethyl]-4-phenyl-piperidine-4-carboxylic acid (4-phenyl-butyl)-amide], the IC50 is 8.8 µM.

Turning to `O=C(NCCc1ccccn1)c1ccccc1C1CCN(CCN2C(=O)COc3ccccc32)CC1` [Cpd 42, 2-{1-[2-(3-oxo-2,3-dihydro-benzo[1,4]oxazin-4-yl)-ethyl]-piperidin-4-yl}-N-(2-pyridin-2-yl-ethyl)-benzamide], the concentration for half-maximal inhibition (IC50) is 20 µM.

On to `COC(=O)c1ccccc1C1CCN(CCN2C(=O)COc3ccccc32)CC1` [Cpd 93], for which the IC50 was 32 µM.

On to `COc1ccccc1CCNC(=O)c1ccccc1C1CCN(CCN2C(=O)COc3ccccc32)CC1` [Cpd 15, N-[2-(2-methoxy-phenyl)-ethyl]-2-{1-[2-(3-oxo-2,3-dihydro-benzo[1,4]oxazin-4-yl)-ethyl]-piperidin-4-yl}-benzamide], for which the concentration for half-maximal inhibition (IC50) came to 8 µM.

As to `COc1cccc(CCNC(=O)c2ccccc2C2CCN(CCN3C(=O)COc4ccccc43)CC2)c1` [Cpd 6, N-[2-(3-methoxy-phenyl)-ethyl]-2-{1-[2-(3-oxo-2,3-dihydro-benzo[1,4]oxazin-4-yl)-ethyl]-piperidin-4-yl}-benzamide], the IC50 was found to be 10 µM.

Take `Cc1ccc(C2CCN(CCN3C(=O)COc4ccccc43)CC2)cc1` [Cpd 90, 4-[2-(4-p-tolyl-piperidin-1-yl)-ethyl]-4H-benzo[1,4]oxazin-3-one]: the IC50 came out at 15 µM.

Regarding `CC(C)(C)OC(=O)N1CCN(CCNC(=O)c2ccccc2C2CC3CCC(C2)N3CCN2C(=O)COc3ccccc32)CC1` (stereo not shown) [Cpd 96, 4-[2-(2-{8-[2-(3-oxo-2,3-dihydro-benzo[1,4]oxazin-4-yl)-ethyl]-8-aza-bicyclo[3.2.1]oct-3-yl}-benzoylamino)-ethyl]-piperazine-1-carboxylic acid tert-butyl ester], the 50% inhibitory concentration (IC50) came out at 3.5 µM.

Consider `O=C(NCc1cccs1)c1ccccc1C1CCN(CCN2C(=O)COc3ccccc32)CC1` [Cpd 46, 2-{1-[2-(3-oxo-2,3-dihydro-benzo[1,4]oxazin-4-yl)-ethyl]-piperidin-4-yl}-N-thiophen-2-ylmethyl-benzamide], for which the half-maximal inhibitory concentration (IC50) amounted to 6 µM.

As to `O=C(NCCCCCNC(=O)c1cc(Cl)ccc1C1CCN(CCN2C(=O)COc3ccccc32)CC1)Nc1ccccc1` [Cpd 81, 5-chloro-2-{1-[2-(3-oxo-2,3-dihydro-benzo[1,4]oxazin-4-yl)-ethyl]-piperidin-4-yl}-N-[5-(3-phenyl-ureido)-pentyl]-benzamide], the half-maximal inhibitory concentration (IC50) turned out to be 0.53 µM.

In the case of `CC1C=C(c2ccc(Cl)cc2C(=O)NCCCCCNC(=O)OC(C)(C)C)CC(C)N1CCN1C(=O)COc2ccccc21` (stereo not shown) [Cpd 102, [5-(5-chloro-2-{2,6-dimethyl-1-[2-(3-oxo-2,3-dihydro-benzo[1,4]oxazin-4-yl)-ethyl]-1,2,3,6-tetrahydro-pyridin-4-yl}-benzoylamino)pentyl]-carbamic acid tert-butyl ester], the IC50 worked out at 7.6 µM.

As to `COC(=O)c1cc(Cl)ccc1C1CCN(CCN2C(=O)COc3ccccc32)CC1` [Cpd 56, 5-chloro-2-{1-[2-(3-oxo-2,3-dihydro-benzo[1,4]oxazin-4-yl)-ethyl]-piperidin-4-yl}-benzoic acid methyl ester], the 50% inhibitory concentration (IC50) is 8 µM.

Regarding `O=C(NCCN1CCNCC1)c1cc(Cl)ccc1C1CCN(CCN2C(=O)COc3ccccc32)CC1` [Cpd 73, 5-chloro-2-{1-[2-(3-oxo-2,3-dihydro-benzo[1,4]oxazin-4-yl)-ethyl]-piperidin-4-yl}-N-(2-piperazin-1-yl-ethyl)-benzamide], the 50% inhibitory concentration (IC50) was 1.9 µM.

For the compound `O=C(c1ccccc1C1CCN(CCN2C(=O)COc3ccccc32)CC1)N1CCc2ccccc2C1` [Cpd 53, 4-(2-{4-[2-(3,4-dihydro-1H-isoquinoline-2-carbonyl)-phenyl]-piperidin-1-yl}-ethyl)-4H-benzo[1,4]oxazin-3-one], the IC50 turned out to be 18 µM.

For `O=C1COc2ccccc2N1CCN1CCC(C(=O)NCc2ccccc2)(c2ccccc2)CC1` [Cpd 104, 1-[2-(3-oxo-2,3-dihydro-benzo[1,4]oxazin-4-yl)-ethyl]-4-phenyl-piperidine-4-carboxylic acid benzylamide], the half-inhibitory concentration (IC50) came to 26 µM.

As for `O=C1COc2ccccc2N1CCN1CCC(C(=O)NCCCc2ccccc2)(c2ccccc2)CC1` [Cpd 107, 1-[2-(3-oxo-2,3-dihydro-benzo[1,4]oxazin-4-yl)-ethyl]-4-phenyl-piperidine-4-carboxylic acid (3-phenyl-propyl)-amide], the IC50 stood at 9.1 µM.

With `O=C(NCCc1ccc(C(F)(F)F)cc1)c1ccccc1C1CCN(CCN2C(=O)COc3ccccc32)CC1` [Cpd 40, 2-{1-[2-(3-oxo-2,3-dihydro-benzo[1,4]oxazin-4-yl)-ethyl]-piperidin-4-yl}-N-[2-(4-trifluoromethyl-phenyl)-ethyl]-benzamide], the IC50 is 4 µM.

`O=C(NCc1cccnc1)c1ccccc1C1CCN(CCN2C(=O)COc3ccccc32)CC1` [Cpd 43, 2-{1-[2-(3-oxo-2,3-dihydro-benzo[1,4]oxazin-4-yl)-ethyl]-piperidin-4-yl}-N-pyridin-3-ylmethyl-benzamide]: the IC50 is 18 µM.

Regarding `COc1ccc(OC)c(CCNC(=O)c2ccccc2C2CCN(CCN3C(=O)COc4ccccc43)CC2)c1` [Cpd 13, N-[2-(2,5-dimethoxy-phenyl)-ethyl]-2-{1-[2-(3-oxo-2,3-dihydro-benzo[1,4]oxazin-4-yl)-ethyl]-piperidin-4-yl}-benzamide], the IC50 was 8 µM.

`O=C(NCc1ccccn1)c1ccccc1C1CCN(CCN2C(=O)COc3ccccc32)CC1` [Cpd 41, 2-{1-[2-(3-oxo-2,3-dihydro-benzo[1,4]oxazin-4-yl)-ethyl]-piperidin-4-yl}-N-pyridin-2-ylmethyl-benzamide]: the concentration for half-maximal inhibition (IC50) stood at 21 µM.

Take `O=C(NCCc1ccc(F)c(F)c1)c1ccccc1C1CCN(CCN2C(=O)COc3ccccc32)CC1` [Cpd 19, N-[2-(3,4-difluoro-phenyl)-ethyl]-2-{1-[2-(3-oxo-2,3-dihydro-benzo[1,4]oxazin-4-yl)-ethyl]-piperidin-4-yl}-benzamide]: the IC50 turned out to be 6 µM.

Regarding `Cc1ccccc1C1CCN(CCN2C(=O)COc3ccccc32)CC1` [Cpd 91, 4-[2-(4-o-tolyl-piperidin-1-yl)-ethyl]-4H-benzo[1,4]oxazin-3-one], the 50% inhibitory concentration (IC50) amounted to 21 µM.

As to `COCCNC(=O)c1ccccc1C1CCN(CCN2C(=O)COc3ccccc32)CC1` [Cpd 36, N-(2-methoxy-ethyl)-2-{1-[2-(3-oxo-2,3-dihydro-benzo[1,4]oxazin-4-yl)-ethyl]-piperidin-4-yl}-benzamide], the 50% inhibitory concentration (IC50) was 25 µM.

Values taken from patent publication US8759342B2, “Benzo[1,4]oxazin-3-one, benzo[1,4]thiazin-3-one and quinolin-2-one urotensin II receptor antagonists” (Janssen Pharmaceutica NV, priority 2006, dated 2014).
